This passage reports EC50 and IC50 results from ChEMBL document CHEMBL5149981, “Carboxylesterase Notum Is a Druggable Target to Modulate Wnt Signaling” (J Med Chem, 2021).

Structures are written as SMILES.

Assay [1] addresses T1, Palmitoleoyl-protein carboxylesterase NOTUM (Homo sapiens, UniProt Q6P988).
T1 sequence (Q6P988 whole entry): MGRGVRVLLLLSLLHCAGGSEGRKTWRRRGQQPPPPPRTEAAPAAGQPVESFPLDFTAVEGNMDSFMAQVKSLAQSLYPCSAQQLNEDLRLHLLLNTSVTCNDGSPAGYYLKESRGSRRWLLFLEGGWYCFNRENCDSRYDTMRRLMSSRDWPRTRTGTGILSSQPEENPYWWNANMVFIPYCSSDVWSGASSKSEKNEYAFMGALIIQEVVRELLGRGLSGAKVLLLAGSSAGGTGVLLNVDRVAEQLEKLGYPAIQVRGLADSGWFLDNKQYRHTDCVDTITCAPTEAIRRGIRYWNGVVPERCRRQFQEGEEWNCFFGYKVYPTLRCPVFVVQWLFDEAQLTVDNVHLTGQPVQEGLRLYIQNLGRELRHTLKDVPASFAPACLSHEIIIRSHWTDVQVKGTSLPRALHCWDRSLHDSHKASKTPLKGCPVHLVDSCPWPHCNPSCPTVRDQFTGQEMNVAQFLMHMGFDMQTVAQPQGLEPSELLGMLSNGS
Description: Inhibition of C-terminal His-V5 tagged human Notum expressed in human HEK293F cells harbouring TCF/LEF luciferase reporter gene assessed as activation of Wnt signaling using WNT3A as substrate by Steady-Glo luciferase assay

In assay [2] the target is T1, Palmitoleoyl-protein carboxylesterase NOTUM. This is another data set of the same source.
Description: Inhibition of human Notum using OPTS substrate by fluorescence based assay
Assay [3] has the same target. The source holds these as a separate data set.
Description: Inhibition of human Notum using OPTS substrate incubated for 1 hr by fluorescence based assay

In assay [1], `Cc1sc2ncnc(SCC(=O)O)c2c1Cl` came in with an EC50 of 0.157 µM. The compound further had an IC50 in assay [2] of 0.002 µM.
In turn, `Cc1ccccc1OCC(=O)Nc1cccnc1` came in with an IC50 in assay [3] of 33 µM.
Consider `CC(=O)NCCc1c[nH]c2ccc(O)cc12` [ACETYLSEROTONIN], for which inhibition in assay [2] was half-maximal at 93.6 µM (IC50).
